We go through 21 compounds from patent US8093249B2, “Pyrazolo[1,5-A]pyrimidine-carbonyl-piperazine derivatives” (Convergence Pharmaceuticals Limited, priority 2008, dated 2012).

Read-outs that look alike come from different tables or passages of the source.

This assay has as its target T1, hCaV2.2 (Homo sapiens, UniProt Q00975).
T1 construct: expressed in transfected cells; plasmids pCIN5-hCaV2.2, pCIH-hCaV β3, pCIP-α2δ1
Briefly: hCaV2.2 assay (IonWorks planar array electrophysiology, HEK293 stable cell line). In kind it is cell-based. The settings on record: inhibition of current elicited by the 1st depolarizing pulse by 50%, HEK293 cells expressing human CaV2.2 α/β3/α2δ1. An excerpt:
Compounds of the invention may be tested for in vitro biological activity in the hCaV2.2 assay in accordance with the following studies:
Stable cell lines expressing the human CaV2.2 α (α1B) subunit, along with the human β3 and α2δ1 auxillary subunits were created following sequential transfection and selection of human embryonic kidney (HEK293) cells. […] Initially HEK293 cells were transfected with two plasmid vectors for expression of the hCaV2.2 α subunit (pCIN5-hCaV2.2 which carries a neomycin resistance marker) and the hCaV β3 subunit (pCIH-hCaV β3 which carries a hygromycin resistance marker). […] These clonal cell lines were assessed for Cav2.2 α/β3-mediated current expression using the IonWorks planar array electrophysiology technology (described below). […] Expression of all three subunits within this cell line was continuously maintained by the inclusion of G418 (0.4 mg ml^−1), hygromycin (0.1 mg ml^−1) and puromycin (0.62 μg ml^−1). Cells were maintained at 37° C. in a humidified environment containing 5% CO2 in air.
Cells were grown to 30-60% confluence in T175 flasks and maintained at 30° C. for 24 hours prior to recording. […] Lifted cells were suspended in 10 ml of extracellular buffer. Cell suspension was then placed into a 15 ml tube and centrifuged for 2 minutes at 700 rpm. After centrifugation, the supernatant was removed and the cell pellet was resuspended in 4.5 ml of extracellular solution.
Currents were recorded at room temperature (21-23° C.) using the IonWorks planar array electrophysiology technology (Molecular Devices Corp.). Stimulation protocols and data acquisition were carried out using a microcomputer (Dell Pentium 4). In order to determine planar electrode hole resistances (Rp), a 10 mV, 160 ms potential difference was applied across each hole. These measurements were performed before cell addition. After cell addition a seal test was performed prior to antibiotic (amphotericin) circulation to achieve intracellular access. Leak subtraction was conducted in all experiments by applying a 160 ms hyperpolarizing (10 mV) prepulse 200 ms before the test pulses to measure leak conductance. Test pulses stepping from the holding potential (VH) of −90 mV to +10 mV were applied for 20 ms and repeated 10 times at a frequency of 10 Hz. In all experiments, the test pulse protocol was performed in the absence (pre-read) and presence (post-read) of a compound. Pre- and post-reads were separated by a compound addition followed by a 3-3.5 min incubation.
The intracellular solution contained the following (in mM): K-gluconate 120, KCl 20 mM, MgCl2 5, EGTA 5, HEPES 10, adjusted to pH 7.3. Amphotericin was prepared as 30 mg/ml stock solution and diluted to a final working concentration of 0.2 mg ml^−1 in intracellular buffer solution. The extracellular solution contained the following (in mM): Na-gluconate 120, NaCl 20, MgCl2 1, HEPES 10, BaCl2 5, adjusted to pH 7.4.
Finally the compounds were diluted 1:100 in external solution resulting in a final DMSO concentration of 1%.
Paired comparisons between pre-compound and post-compound additions were used to determine the inhibitory effect of each compound. […] In addition the use-dependent inhibitory properties of the compounds were determined by assessing the effect of compounds on the 10th versus 1st depolarizing pulse. The ratio of the 10th over 1st pulse was determined in the absence and presence of drug and the % use-dependent inhibition calculated.
Compounds were tested in the form as described in the Examples. […] Variations in pUD30 and pIC50 values may arise between tests.
(In general: The patch-clamp technique gives a direct electrical read-out from membranes.)

The mark [1] stands for this setting: read-out: mean pIC50 value (tonic pIC50) (converted).

T1 sequence (Q00975 whole entry): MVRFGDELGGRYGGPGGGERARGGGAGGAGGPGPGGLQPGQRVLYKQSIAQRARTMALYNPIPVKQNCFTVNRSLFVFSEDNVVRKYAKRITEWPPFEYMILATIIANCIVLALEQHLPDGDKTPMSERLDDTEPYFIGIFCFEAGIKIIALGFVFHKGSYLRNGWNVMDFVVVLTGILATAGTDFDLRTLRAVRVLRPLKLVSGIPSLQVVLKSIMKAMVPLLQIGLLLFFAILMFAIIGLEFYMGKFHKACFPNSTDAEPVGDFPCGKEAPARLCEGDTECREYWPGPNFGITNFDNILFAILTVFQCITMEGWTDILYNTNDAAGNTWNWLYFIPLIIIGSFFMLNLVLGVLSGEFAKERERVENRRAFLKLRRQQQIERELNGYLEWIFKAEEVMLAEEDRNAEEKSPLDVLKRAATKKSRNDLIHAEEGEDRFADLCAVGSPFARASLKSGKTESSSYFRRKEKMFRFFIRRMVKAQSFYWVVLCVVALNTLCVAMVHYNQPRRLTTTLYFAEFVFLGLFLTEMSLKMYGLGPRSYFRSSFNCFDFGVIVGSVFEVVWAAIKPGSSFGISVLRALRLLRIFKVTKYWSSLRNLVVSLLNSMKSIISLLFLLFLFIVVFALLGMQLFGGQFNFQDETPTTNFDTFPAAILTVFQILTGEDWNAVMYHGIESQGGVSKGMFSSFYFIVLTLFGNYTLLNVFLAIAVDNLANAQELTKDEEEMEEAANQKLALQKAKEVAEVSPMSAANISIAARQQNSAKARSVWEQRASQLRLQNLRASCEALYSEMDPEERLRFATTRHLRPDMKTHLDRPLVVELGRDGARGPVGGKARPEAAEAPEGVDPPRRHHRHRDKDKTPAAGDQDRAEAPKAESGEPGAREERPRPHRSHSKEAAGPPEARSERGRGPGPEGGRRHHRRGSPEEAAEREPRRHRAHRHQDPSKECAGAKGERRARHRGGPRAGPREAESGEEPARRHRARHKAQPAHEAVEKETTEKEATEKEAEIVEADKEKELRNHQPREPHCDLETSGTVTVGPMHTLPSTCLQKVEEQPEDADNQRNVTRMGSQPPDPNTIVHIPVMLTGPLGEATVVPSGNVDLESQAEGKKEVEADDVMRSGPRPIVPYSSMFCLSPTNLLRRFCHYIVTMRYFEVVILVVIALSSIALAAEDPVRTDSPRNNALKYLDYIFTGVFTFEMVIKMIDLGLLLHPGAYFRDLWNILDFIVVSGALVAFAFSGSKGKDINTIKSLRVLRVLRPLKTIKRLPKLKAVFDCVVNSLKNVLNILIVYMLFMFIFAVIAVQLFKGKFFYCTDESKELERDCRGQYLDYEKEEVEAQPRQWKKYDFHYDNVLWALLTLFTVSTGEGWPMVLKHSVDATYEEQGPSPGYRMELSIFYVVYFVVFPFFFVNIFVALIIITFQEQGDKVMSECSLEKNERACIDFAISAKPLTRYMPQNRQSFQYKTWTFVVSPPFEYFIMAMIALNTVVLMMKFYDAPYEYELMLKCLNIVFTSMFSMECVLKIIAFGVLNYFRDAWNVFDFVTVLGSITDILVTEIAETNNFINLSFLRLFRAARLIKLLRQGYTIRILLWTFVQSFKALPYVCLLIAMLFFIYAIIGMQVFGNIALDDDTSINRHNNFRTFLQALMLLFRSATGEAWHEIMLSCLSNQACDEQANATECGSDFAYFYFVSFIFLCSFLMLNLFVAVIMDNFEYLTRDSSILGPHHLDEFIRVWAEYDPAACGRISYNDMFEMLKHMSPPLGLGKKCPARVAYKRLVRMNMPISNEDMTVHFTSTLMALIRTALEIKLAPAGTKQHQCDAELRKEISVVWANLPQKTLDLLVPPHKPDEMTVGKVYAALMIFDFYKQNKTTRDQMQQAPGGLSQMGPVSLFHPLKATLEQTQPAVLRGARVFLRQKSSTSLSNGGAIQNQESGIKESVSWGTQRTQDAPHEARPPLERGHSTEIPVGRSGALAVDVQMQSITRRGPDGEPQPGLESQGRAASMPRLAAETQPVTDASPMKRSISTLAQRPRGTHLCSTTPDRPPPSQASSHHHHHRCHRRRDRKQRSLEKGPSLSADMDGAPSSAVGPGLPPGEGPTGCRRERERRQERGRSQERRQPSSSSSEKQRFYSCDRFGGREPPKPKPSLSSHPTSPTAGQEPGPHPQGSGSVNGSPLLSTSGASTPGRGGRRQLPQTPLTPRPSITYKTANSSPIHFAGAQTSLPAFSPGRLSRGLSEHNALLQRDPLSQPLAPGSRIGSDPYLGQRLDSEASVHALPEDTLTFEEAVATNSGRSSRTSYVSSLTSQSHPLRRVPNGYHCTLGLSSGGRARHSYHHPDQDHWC
T1 sequence (P54284 whole entry partner): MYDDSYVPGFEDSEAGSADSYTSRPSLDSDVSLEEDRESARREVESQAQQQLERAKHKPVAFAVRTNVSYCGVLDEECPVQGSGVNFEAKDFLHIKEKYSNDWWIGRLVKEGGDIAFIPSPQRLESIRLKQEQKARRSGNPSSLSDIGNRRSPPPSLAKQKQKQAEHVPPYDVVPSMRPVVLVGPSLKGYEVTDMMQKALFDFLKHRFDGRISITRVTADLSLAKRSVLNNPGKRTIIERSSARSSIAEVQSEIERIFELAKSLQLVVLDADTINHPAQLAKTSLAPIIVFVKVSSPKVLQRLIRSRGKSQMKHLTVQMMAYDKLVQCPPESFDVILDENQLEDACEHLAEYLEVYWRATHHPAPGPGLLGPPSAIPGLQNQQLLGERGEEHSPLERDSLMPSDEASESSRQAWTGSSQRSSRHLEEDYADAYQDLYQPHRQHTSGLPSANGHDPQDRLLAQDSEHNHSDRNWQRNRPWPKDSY
T1 sequence (P54289 25-946 partner limits assumed): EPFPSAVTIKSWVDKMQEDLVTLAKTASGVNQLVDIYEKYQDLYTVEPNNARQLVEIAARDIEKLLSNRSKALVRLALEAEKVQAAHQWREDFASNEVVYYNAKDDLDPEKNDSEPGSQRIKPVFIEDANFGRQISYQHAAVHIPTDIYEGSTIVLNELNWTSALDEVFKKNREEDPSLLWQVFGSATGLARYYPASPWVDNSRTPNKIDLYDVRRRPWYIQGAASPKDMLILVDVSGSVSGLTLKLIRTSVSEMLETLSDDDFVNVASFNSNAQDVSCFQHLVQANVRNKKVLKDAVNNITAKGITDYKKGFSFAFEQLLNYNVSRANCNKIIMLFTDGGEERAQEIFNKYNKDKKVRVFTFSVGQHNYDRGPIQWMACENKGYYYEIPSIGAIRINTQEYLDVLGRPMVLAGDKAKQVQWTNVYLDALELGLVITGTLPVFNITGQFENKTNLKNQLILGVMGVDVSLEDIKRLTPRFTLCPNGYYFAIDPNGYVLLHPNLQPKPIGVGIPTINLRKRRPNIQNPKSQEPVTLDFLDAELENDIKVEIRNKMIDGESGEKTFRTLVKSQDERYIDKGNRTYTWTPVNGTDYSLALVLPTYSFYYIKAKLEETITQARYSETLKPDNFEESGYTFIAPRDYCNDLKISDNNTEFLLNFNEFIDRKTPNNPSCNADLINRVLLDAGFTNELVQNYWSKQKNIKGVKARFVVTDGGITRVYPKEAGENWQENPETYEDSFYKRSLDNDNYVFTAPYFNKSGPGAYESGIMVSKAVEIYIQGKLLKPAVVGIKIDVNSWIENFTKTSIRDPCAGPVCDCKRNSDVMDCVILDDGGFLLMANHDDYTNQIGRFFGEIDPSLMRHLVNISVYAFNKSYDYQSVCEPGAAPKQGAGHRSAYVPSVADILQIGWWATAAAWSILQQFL
T1 sequence (P54289 947-1103 partner limits assumed): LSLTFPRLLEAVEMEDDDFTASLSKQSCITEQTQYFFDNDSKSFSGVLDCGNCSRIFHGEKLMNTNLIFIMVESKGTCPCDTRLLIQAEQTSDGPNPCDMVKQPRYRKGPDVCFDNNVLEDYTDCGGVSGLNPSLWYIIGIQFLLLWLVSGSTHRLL

Regarding `Cc1cc(C#N)ccc1S(=O)(=O)N1CCN(C(=O)c2c(C)nn3cccnc23)[C@@H](C)C1` [Example 24, 3-methyl-4-({(3S)-3-methyl-4-[(2-methylpyrazolo[1,5-a]pyrimidin-3-yl)carbonyl]-1-piperazinyl}sulfonyl)benzonitrile], the IC50 under setting [1] is ≥ 31.6 µM.
Same read-out and setting: the figure for `Cc1cc(C)n2ncc(C(=O)N3CCN(S(=O)(=O)c4ccc(C(F)(F)F)cc4)CC3)c2n1` [Example 14, 5,7-dimethyl-3-[(4-{[4-(trifluoromethyl)phenyl]sulfonyl}-1-piperazinyl)carbonyl]pyrazolo[1,5-a] pyrimidine] is ≥ 31.6 µM; for `C[C@H]1CN(S(=O)(=O)c2ccc(C(F)(F)F)cc2)CCN1C(=O)c1cnn2cc(F)cnc12` [Example 9, 6-Fluoro-3-[((2S)-2-methyl-4-{[4-(trifluoromethyl)phenyl]sulfonyl}-1-piperazinyl)carbonyl]pyrazolo[1,5-a]pyrimidine] it is ≥ 10 µM; for `C[C@H]1CN(C(=O)c2cnn3cccnc23)CCN1S(=O)(=O)c1ccc(OC(F)(F)F)cc1` [Example 15, 3-{[(3S)-3-methyl-4-({4-[(trifluoromethyl)oxy]phenyl}sulfonyl)-1-piperazinyl]carbonyl}pyrazolo[1,5-a] pyrimidine] it is ≥ 31.6 µM.
Regarding `C[C@H]1CN(C(=O)c2cnn3cccnc23)CCN1S(=O)(=O)c1ccc(C(F)(F)F)cc1` [Example 4, 3-[((3S)-3-Methyl-4-{[4-(trifluoromethyl)phenyl]sulfonyl}-1-piperazinyl)carbonyl]pyrazolo[1,5-a]pyrimidine], the IC50 under setting [1] is ≥ 31.6 µM.
On the same count and under the same terms, in the case of `C[C@H]1CN(S(=O)(=O)c2ccc(OC(F)(F)F)cc2)CCN1C(=O)c1cnn2cccnc12` [Example 11, 3-{[(2S)-2-methyl-4-({4-[(trifluoromethyl)oxy]phenyl}sulfonyl)-1-piperazinyl]carbonyl}pyrazolo[1,5-a]pyrimidine] it was ≥ 31.6 µM; in that of `Cc1cc(C#N)ccc1S(=O)(=O)N1CCN(C(=O)c2cnn3cc(Cl)cnc23)[C@@H](C)C1` [Example 16, 4-({(3S)-4-[(6-chloropyrazolo[1,5-a]pyrimidin-3-yl)carbonyl]-3-methyl-1-piperazinyl}sulfonyl)-3-methylbenzonitrile], ≥ 10 µM.
The same measure, in the same setting: in the case of `C[C@@H]1CN(C(=O)c2cnn3cccnc23)CCN1S(=O)(=O)c1ccc(C(F)(F)F)cc1` [Example 3, 3-[((3R)-3-Methyl-4-{[4-(trifluoromethyl)phenyl]sulfonyl}-1-piperazinyl)carbonyl]pyrazolo[1,5-a]pyrimidine] it was ≥ 31.6 µM; in that of `C[C@H]1CN(S(=O)(=O)c2ccc(C(F)(F)F)cc2)CCN1C(=O)c1cnn2cccnc12` [Example 2, 3-[((2S)-2-Methyl-4-{[4-(trifluoromethyl)phenyl]sulfonyl}-1-piperazinyl)carbonyl]pyrazolo[1,5-a]pyrimidine], ≥ 10 µM; in that of `O=C(c1cnn2cccnc12)N1CCN(S(=O)(=O)c2ccc(OC(F)(F)F)cc2)CC1` [Example 8, 3-{[4-({4-[(trifluoromethyl)oxy]phenyl}sulfonyl)-1-piperazinyl]carbonyl}pyrazolo[1,5-a]pyrimidine], ≥ 31.6 µM.
Turning to `C[C@@H]1CN(S(=O)(=O)c2ccc(C(F)(F)F)cc2)CCN1C(=O)c1cnn2cccnc12` [Example 7, 3-[((2R)-2-Methyl-4-{[4-(trifluoromethyl)phenyl]sulfonyl}-1-piperazinyl)carbonyl]pyrazolo[1,5-a]pyrimidine], the IC50 under setting [1] is ≥ 31.6 µM.
Regarding `Cc1cc(C#N)ccc1S(=O)(=O)N1CCN(C(=O)c2cnn3cccnc23)[C@@H](C)C1` [Example 5, 3-Methyl-4-{[(3S)-3-methyl-4-(pyrazolo[1,5-a]pyrimidin-3-ylcarbonyl)-1-piperazinyl]sulfonyl}benzonitrile], under setting [1], the IC50 was ≥ 31.6 µM.
Same read-out and setting: the figure for `Cc1ccc(C(F)(F)F)cc1S(=O)(=O)N1CCN(C(=O)c2cnn3cccnc23)CC1` [Example 19, 3-[(4-{[2-methyl-5-(trifluoromethyl)phenyl]sulfonyl}-1-piperazinyl)carbonyl]pyrazolo[1,5-a] pyrimidine] is ≥ 31.6 µM; for `C[C@@H]1CN(S(=O)(=O)c2ccc(OC(F)(F)F)cc2)CCN1C(=O)c1cnn2cccnc12` [Example 22, 3-{[(2R)-2-methyl-4-({4-[(trifluoromethyl)oxy]phenyl}sulfonyl)-1-piperazinyl]carbonyl}pyrazolo[1,5-a] pyrimidine] it is ≥ 31.6 µM; for `O=C(c1cnn2cccnc12)N1CCN(S(=O)(=O)c2ccc(C(F)(F)F)cc2)CC1` [Example 1, 3-[(4-{[4-(Trifluoromethyl)phenyl]sulfonyl}-1-piperazinyl)carbonyl]pyrazolo[1,5-a]pyrimidine] it is ≥ 31.6 µM.
Take `Cc1nn2cccnc2c1C(=O)N1CCN(S(=O)(=O)c2ccc(C(F)(F)F)cc2)C[C@@H]1C` [Example 20, 2-methyl-3-[((2S)-2-methyl-4-{[4-(trifluoromethyl)phenyl]sulfonyl}-1-piperazinyl)carbonyl]pyrazolo[1,5-a] pyrimidine]: the IC50 under setting [1] was ≥ 10 µM.
On the same count and under the same terms, the figure for `Cc1ccc(C(F)(F)F)cc1S(=O)(=O)N1CCN(C(=O)c2cnn3cccnc23)[C@@H](C)C1` [Example 18, 3-[((2S)-2-methyl-4-{[2-methyl-5-(trifluoromethyl)phenyl]sulfonyl}-1-piperazinyl)carbonyl]pyrazolo[1,5-a] pyrimidine] is ≥ 31.6 µM; for `Cc1cnc2c(C(=O)N3CCN(S(=O)(=O)c4ccc(C(F)(F)F)cc4)CC3)cnn2c1` [Example 6, 6-Methyl-3-[(4-{[4-(trifluoromethyl)phenyl]sulfonyl}-1-piperazinyl)carbonyl]pyrazolo[1,5-a]pyrimidine] it is ≥ 31.6 µM.
In the case of `Cc1cc(C#N)ccc1S(=O)(=O)N1CCN(C(=O)c2cnn3cc(F)cnc23)[C@@H](C)C1` [Example 10, 4-({(3S)-4-[(6-fluoropyrazolo[1,5-a]pyrimidin-3-yl)carbonyl]-3-methyl-1-piperazinyl}sulfonyl)-3-methylbenzonitrile], under “mean pIC50 value (tonic pIC50)”, the IC50 is ≥ 31.6 µM.
For the compound `C[C@@H]1CN(C(=O)c2cnn3cccnc23)CCN1S(=O)(=O)c1ccc(OC(F)(F)F)cc1` [Example 21, 3-{[(3R)-3-methyl-4-({4-[(trifluoromethyl)oxy]phenyl}sulfonyl)-1-piperazinyl]carbonyl}pyrazolo[1,5-a] pyrimidine], under setting [1], the IC50 is ≥ 31.6 µM.
On the same count and under the same terms, in the case of `Cc1cnc2c(C(=O)N3CCN(S(=O)(=O)c4ccc(C#N)cc4C)C[C@@H]3C)cnn2c1` [Example 23, 3-methyl-4-({(3S)-3-methyl-4-[(6-methylpyrazolo[1,5-a]pyrimidin-3-yl)carbonyl]-1-piperazinyl}sulfonyl)benzonitrile] it was ≥ 31.6 µM.
